Earlier results on one molecule are cited in patent US20230340373A1, “CLEANING WIPES” (Tygrus LLC, priority 2022, published 2023).

By pKa is commonly meant the pH at which an ionisable group is half protonated.

The conditions of the series: 25 C; cited from earlier work.

As to `C=CCc1ccc(O)c(OC)c1` [Eugenol], the pKa is given as 10.19.
